These results are taken from patent US20240368104A1, “Novel Dialkoxynaphtho[2,3-C]Furan-1(3H)-One Derivatives and Pharmaceutical Composition For Preventing or Treating Respiratory Disease or SARS-COV-2 Infection Disease, Comprising Same” (priority 2021, published 2024).

The test system of data set [1] is IL-5 expression in Th2 cells. The experiment in a line: Inhibition of IL-5 expression in Th2 cells (ELISA). As to conditions: Splenocyte, read-out: Inhibitory ability against IL-5 expression (%). The format is cell-based, Balb/C mice. The method, then: Specifically, after spleens were collected from Balb/C mice, CD4+ T cells were isolated therefrom and were seeded at 1-2×10^6 per well into a 48-well tissue culture plate coated with anti-CD3 (5 ug/ml) and anti-CD28 (1 ug/ml). At this time, the culture medium was incubated with IL-2 (20 ng/ml), IL-4 (100 ng/ml), anti-IFNγ (10 ug/ml), anti-IL12 (10 ug/ml), and a derivative of 1 nM for two days, transferred to a new tissue culture plate, and further cultured for three days to induce differentiation into Th2 cells. After replacing with a new medium containing anti-IFNγ (10 ug/ml), anti-IL12 (10 ug/ml) and a derivative of 1 nM, polarization of Th2 cells was induced using PMA and A23187. After two days of culture, the cells were centrifuged and the culture medium was taken to perform IL-5 ELISA. IL-5 ELISA was performed according to the test method of the kit manufacturer.

Data set [2] in a line: in vitro. As to conditions: African green monkey.
For data set [3], the system named is SARS-COV-2. Kind of data set: microbe, parasite or virus in culture. It is filed as cell-based. Set-up: SI (Selectivity Index, CC50/IC50): unit not given here. Conditions: for SI (Selectivity Index, CC50/IC50): SARS-COV-2, values >50 assumed to be 50; for IC50: read-out: SARS-COV-2 inhibition (IC50).
[4] abbreviates: Th2 cells from mouse splenocytes, compound 1 nM.
Setting [5] is: Severe acute respiratory syndrome coronavirus 2, Vero cells, 24 hours infection.

Read-outs that look alike come from different tables or passages of the source.

Consider `CCOC(=O)CNC(=O)[C@@H]1CCCN1c1ncc(-c2c3c(cc4cc(OC)c(OC)cc24)COC3=O)cn1` [Example 45, Ethyl (5-(6,7-dimethoxy-3-oxo-1,3-dihydronaphtho[2,3-c]furan-4-yl)pyrimidin-2-yl)-L-proglycinate], for which, in data set [1] (setting [4]), the inhibition at 0.001 µM came out at 64.2%.
As usually defined, the IC50 is the concentration that inhibits the measured activity by half. Molecule `COc1cc2cc3c(c(-c4cnc(O[C@H]5CN6CCC5CC6)nc4)c2cc1OC)C(=O)OC3` [Example 17, (R)-6,7-dimethoxy-9-(2-(quinuclidin-3-yloxy)pyrimidin-5-yl)naphtho[2,3-c]furan-1(3H)-one] yielded a CC50 in data set [2] of more than 50 µM. In addition, the “SI (Selectivity Index, CC50/IC50)” value in data set [3] turned out to be 1.59. Also, the IC50 in data set [3] (Severe acute respiratory syndrome coronavirus 2, Vero, 24 h) was found to be 31.4 µM. For the same molecule, the inhibition at 0.001 µM in data set [1] (Mus musculus) was determined as 55.2%.
Take `COc1cc2cc3c(c(-c4cnc(N[C@H]5CCc6c(cccc6OC)C5)nc4)c2cc1OC)C(=O)OC3` [Example 22, (S)-6,7-dimethoxy-9-(2-((5-methoxy-1,2,3,4-tetrahydronaphthalen-2-yl)amino)pyrimidin-5-yl)naphtho[2,3-c]furan-1(3H)-one]: the CC50 in data set [2] was more than 50 µM. In addition, in data set [3], the “SI (Selectivity Index, CC50/IC50)” value is on record as 10.64. For the same molecule, the concentration for half-maximal inhibition (IC50) in data set [3] (setting [5]) came to 4.7 µM. For the same molecule, the inhibition at 0.001 µM in data set [1] (setting [4]) amounted to 59.9%.
Regarding `COc1cc2cc3c(c(-c4cnc(N5CCC[C@H]5C(=O)NCc5ccc(C)o5)nc4)c2cc1OC)C(=O)OC3` [Example 41, (S)-1-(5-(6,7-dimethoxy-3-oxo-1,3-dihydronaphtho[2,3-c]furan-4-yl)pyrimidin-2-yl)-N-((5-methylfuran-2-yl)methyl)pyrrolidin-2-carboxamide], the CC50 in data set [2] is more than 50 µM. The “SI (Selectivity Index, CC50/IC50)” value in data set [3] is given as 2.41. The 50% inhibitory concentration (IC50) in data set [3] (setting [5]) was 15.2 µM. Also, the inhibition at 0.001 µM in data set [1] (setting [4]) was 66%.
In the same order, the values of `COc1cc2cc3c(c(-c4cnc(OCCN5CCOCC5)nc4)c2cc1OC)C(=O)OC3` [Example 13, 6,7-dimethoxy-9-(2-(2-morpholinoethoxy)pyrimidin-5-yl)naphtho[2,3-c]furan-1(3H)-one] are more than 50 µM, 1.00, more than 50 µM and 67.7%.
In the same order, the values of `COc1cc2cc3c(c(-c4cnc(Oc5ccc6c(c5)OCO6)nc4)c2cc1OC)C(=O)OC3` [Example 20, 9-(2-(benzo[d][1,3]dioxol-5-yloxy)pyrimidin-5-yl)-6,7-dimethoxynaphtho[2,3-c]furan-1(3H)-one] are more than 50 µM, 1.00, more than 50 µM and 40.8%.
The matching figures for `COCCN(C)c1ncc(-c2c3c(cc4cc(OC)c(OC)cc24)COC3=O)cn1` [Example 18, 6,7-dimethoxy-9-(2-((2-methoxyethyl)(methyl)amino)pyrimidin-5-yl)naphtho[2,3-c]furan-1(3H)-one]: more than 50 µM, 99.07, 0.5 µM and 72.3%.
As for `COc1cc2cc3c(c(-c4cnc(NCCCn5ccnc5)nc4)c2cc1OC)C(=O)OC3` [Example 16, 9-(2-((3-(1H-imidazol-1-yl)propyl)amino)pyrimidin-5-yl)-6,7-dimethoxynaphtho[2,3-c]furan-1(3H)-one], the CC50 in data set [2] is more than 50 µM. Besides, the “SI (Selectivity Index, CC50/IC50)” value in data set [3] is 1.6. In addition, the IC50 in data set [3] (setting [5]) came out at 31.2 µM. In addition, in data set [1] (setting [4]), the inhibition at 0.001 µM was determined as 70.8%.
With `CCCOCCNc1ncc(-c2c3c(cc4cc(OC)c(OC)cc24)COC3=O)cn1` [Example 37, 6,7-dimethoxy-9-(2-((2-propoxyethyl)amino)pyrimidin-5-yl)naphtho[2,3-c]furan-1(3H)-one], the CC50 in data set [2] is more than 50 µM. The “SI (Selectivity Index, CC50/IC50)” value in data set [3] came to 1.00. Also, the IC50 in data set [3] (setting [5]) is more than 50 µM. For the same molecule, the inhibition at 0.001 µM in data set [1] (setting [4]) amounted to 56%.
In data set [2], `CCC(C)Oc1ncc(-c2c3c(cc4cc(OC)c(OC)cc24)COC3=O)cn1` (stereo not shown) [Example 25, 9-(2-(sec-butoxy)pyrimidin-5-yl)-6,7-dimethoxynaphtho[2,3-c]furan-1(3H)-one] gave a CC50 of more than 50 µM. In data set [3], the “SI (Selectivity Index, CC50/IC50)” value is reported as 1.00. Further, the IC50 in data set [3] (setting [5]) is more than 50 µM. In addition, the inhibition at 0.001 µM in data set [1] (setting [4]) came to 56.8%.
In turn, `CCCOCCN(CCC)c1ncc(-c2c3c(cc4cc(OC)c(OC)cc24)COC3=O)cn1` [Example 42, 6,7-dimethoxy-9-(2-((2-propoxyethyl)(propyl)amino)pyrimidin-5-yl)naphtho[2,3-c]furan-1(3H)-one] yielded a CC50 in data set [2] of more than 50 µM. Also, in data set [3], the “SI (Selectivity Index, CC50/IC50)” value was determined as 1.00. Also, the concentration for half-maximal inhibition (IC50) in data set [3] (setting [5]) is more than 50 µM. Also, in data set [1] (setting [4]), the inhibition at 0.001 µM worked out at 64.8%.
For `COC(=O)[C@@H](C)NC(=O)[C@@H]1CCCN1c1ncc(-c2c3c(cc4cc(OC)c(OC)cc24)COC3=O)cn1` [Example 38, Methyl (5-(6,7-dimethoxy-3-oxo-1,3-dihydronaphtho[2,3-c]furan-4-yl)pyrimidin-2-yl)-L-prolyl-D-alaninate], in data set [1] (setting [4]), the inhibition at 0.001 µM amounted to 62.8%.
For `CCOC(=O)C1CCCN(c2ncc(-c3c4c(cc5cc(OC)c(OC)cc35)COC4=O)cn2)C1` (stereo not shown) [Example 15, Ethyl 1-(5-(6,7-dimethoxy-3-oxo-1,3-dihydronaphtho[2,3-c]furan-4-yl)pyrimidin-2-yl) piperidin-3-carboxylate], the CC50 in data set [2] was more than 50 µM. Further, in data set [3], the “SI (Selectivity Index, CC50/IC50)” value turned out to be 11.37. For the same molecule, the 50% inhibitory concentration (IC50) in data set [3] (setting [5]) is 4.4 µM. Besides, the inhibition at 0.001 µM in data set [1] (setting [4]) worked out at 82.9%.
The matching figures for `CCCCCCOCCN(CCCCCC)c1ncc(-c2c3c(cc4cc(OC)c(OC)cc24)COC3=O)cn1` [Example 48, 9-(2-(hexyl(2-(hexyloxy)ethyl)amino)pyrimidin-5-yl)-6,7-dimethoxynaphtho[2,3-c]furan-1(3H)-one]: more than 50 µM, 2.55, 19.6 µM and 58.1%.
The matching figures for `COc1cc2cc3c(c(-c4cnc(N(C)C(C)C)nc4)c2cc1OC)C(=O)OC3` [Example 23, 9-(2-(isopropyl(methyl)amino)pyrimidin-5-yl)-6,7-dimethoxynaphtho[2,3-c]furan-1(3H)-one]: more than 50 µM, 61.34, 0.08 µM and 68.2%.
On to `COc1cc2cc3c(c(N[C@H]4CCc5c(cccc5OC)C4)c2cc1OC)C(=O)OC3` [Example 1, (S)-6,7-dimethoxy-9-((5-methoxy-1,2,3,4-tetrahydronaphthalen-2-yl)amino)naphtho[2,3-c]furan-1(3H)-one], for which the CC50 in data set [2] was more than 50 µM. In addition, the “SI (Selectivity Index, CC50/IC50)” value in data set [3] is on record as 1.00. The IC50 in data set [3] (setting [5]) is more than 50 µM. The inhibition at 0.001 µM in data set [1] (setting [4]) is 61.9%.
Turning to `COc1cc2cc3c(c(-c4cnc5ccccc5c4)c2cc1OC)C(=O)OC3` [Example 46, 6,7-dimethoxy-9-(quinolin-3-yl)naphtho[2,3-c]furan-1(3H)-one], in data set [2], the CC50 is more than 50 µM. Also, the “SI (Selectivity Index, CC50/IC50)” value in data set [3] is reported as 512.00. For the same molecule, in data set [3] (setting [5]), the half-maximal inhibitory concentration (IC50) came out at 0.1 µM. Besides, the inhibition at 0.001 µM in data set [1] (setting [4]) worked out at 50.4%.
The matching figures for `COc1cc2cc3c(c(-c4ccc5nccnc5c4)c2cc1OC)C(=O)OC3` [Example 40, 6,7-dimethoxy-9-(quinoxalin-6-yl)naphtho[2,3-c]furan-1(3H)-one]: more than 50 µM, 76.71, 0.65 µM and 65.1%.
The matching figures for `COc1cc2cc3c(c(-c4cnc(N5CCC[C@H]5C(=O)N[C@@H](C)c5ccc(F)cc5)nc4)c2cc1OC)C(=O)OC3` [Example 39, (S)-1-(5-(6,7-dimethoxy-3-oxo-1,3-dihydronaphtho[2,3-c]furan-4-yl)pyrimidin-2-yl)-N—((S)-1-(4-fluorophenyl)ethyl)pyrrolidin-2-carboxamide]: more than 50 µM, 1.98, 13.6 µM and 47.7%.
The matching figures for `CCOC(=O)[C@@H]1CCCN1c1ncc(-c2c3c(cc4cc(OC)c(OC)cc24)COC3=O)cn1` [Example 19, (S)ethyl 1-(5-(6,7-dimethoxy-3-oxo-1,3-dihydronaphtho[2,3-c]furan-4-yl)pyrimidin-2-yl)pyrrolidin-2-carboxylate]: more than 50 µM, 1.60, 31.3 µM and 92.3%.
For `COc1cc2cc3c(c(-c4cnc(N5CCC[C@H]5C(=O)N5C[C@@H](C)O[C@@H](C)C5)nc4)c2cc1OC)C(=O)OC3` [Example 24, 9-(2-((S)-2-((2S,6R)-2,6-dimethylmorpholin-4-carbonyl)pyrrolidin-1-yl)pyrimidin-5-yl)-6,7-dimethoxynaphtho[2,3-c]furan-1(3H)-one], the CC50 in data set [2] is more than 50 µM. The “SI (Selectivity Index, CC50/IC50)” value in data set [3] is on record as 1.00. The concentration for half-maximal inhibition (IC50) in data set [3] (setting [5]) is more than 50 µM. Besides, in data set [1] (setting [4]), the inhibition at 0.001 µM worked out at 72.3%.
Regarding `CCOC(=O)CNc1ncc(-c2c3c(cc4cc(OC)c(OC)cc24)COC3=O)cn1` [Example 44, Ethyl (5-(6,7-dimethoxy-3-oxo-1,3-dihydronaphtho[2,3-c]furan-4-yl)pyrimidin-2-yl)glycinate], in data set [1] (setting [4]), the inhibition at 0.001 µM is 58.3%.
